Measured values as given in US10407428B2, “Spiro-isoquinoline-1,4′-piperidine compounds having multimodal activity against pain” (ESTEVE PHARMACEUTICALS, S.A., priority 2014, dated 2019).
Read-outs that look alike come from different tables or passages of the source.

Biological target: human σ1 receptor and human μ-opioid receptor
Experiment: Human σ1 receptor radioligand assay and human μ-opioid receptor radioligand assay (μ and σ1 dual binding)
Set-up: key to μ and σ1 dual binding: +: Both Ki-μ and Ki-σ1>=500 nM; ++: One Ki<500 nM while the other Ki is >=500 nM; +++: Both Ki-μ and Ki-σ1<500 nM; ++++: Both Ki-μ and Ki-σ1<100 nM
[1] = combined class for Ki-μ ([3H]-DAMGO, CHO-K1 membranes) and Ki-σ1 ([3H](+)-pentazocine, HEK-293 membranes)

| SMILES | Ki [nM] | other results |
| --- | --- | --- |
| CN1CCc2ccccc2C12CCN(CC(=O)N1CCC3(CC1)CC3)CC2 [Example 62, 2-(2-methyl-3,4-dihydro-2H-spiro[isoquinoline-1,4′-piperidine]-1′-yl)-1-(6-azaspiro[2.5]octan-6-yl)ethanone] | < 100 | – |
| CN1CCc2ccccc2C12CCN(CC(=O)N1CCC(F)(F)C1)CC2 [Example 92, 1-(3,3-difluoropyrrolidin-1-yl)-2-(2-methyl-3,4-dihydro-2H-spiro[isoquinoline-1,4′-piperidine]-1′-yl)ethanone] | – | μ and σ1 dual binding: ++ |
| CCN1CCc2ccccc2C12CCN(CC(=O)N1CCOCC1)CC2 [Example 147, 2-(2-ethyl-3,4-dihydro-2H-spiro[isoquinoline-1,4′-piperidine]-1′-yl)-1-morpholinoethanone] | < 500 | – |
| CC(C(=O)N1CCC(F)CC1)N1CCC2(CC1)c1ccccc1CCN2C (stereo not drawn) [Example 86, 1-(4-fluoropiperidin-1-yl)-2-(2-methyl-3,4-dihydro-2H-spiro[isoquinoline-1,4′-piperidine]-1′-yl)propan-1-one] | – | μ and σ1 dual binding: ++ |
| CN1CCc2ccccc2C12CCN(CCc1ccncc1)CC2 [Example 121, 2-Methyl-1′-(2-(pyridin-4-yl)ethyl)-3,4-dihydro-2H-spiro[isoquinoline-1,4′-piperidine]] | < 500 | – |
| CN1CCc2ccccc2C12CCN(CCc1cccc([N+](=O)[O-])c1)CC2 [Example 85, 2-methyl-1′-(3-nitrophenethyl)-3,4-dihydro-2H-spiro[isoquinoline-1,4′-piperidine]] | – | Ki [1]: ≥ 500 nM |
| CCN1CCc2ccccc2C12CCN(CC(=O)N1CCC(F)CC1)CC2 [Example 150, 2-(2-ethyl-3,4-dihydro-2H-spiro[isoquinoline-1,4′-piperidine]-1′-yl)-1-(4-fluoropiperidin-1-yl)ethanone] | < 500 | – |
| CN1CCc2ccccc2C12CCN(CC(=O)N1CC[C@@H](F)C1)CC2 [Example 95, (R)-1-(3-fluoropyrrolidin-1-yl)-2-(2-methyl-3,4-dihydro-2H-spiro[isoquinoline-1,4′-piperidine]-1′-yl)ethanone] | – | μ and σ1 dual binding: ++ |
| CC(=O)N1CCc2ccccc2C12CCN(CCOCc1ccccc1)CC2 [Example 32, 1-(1′-(2-(benzyloxy)ethyl)-3,4-dihydro-2H-spiro[isoquinoline-1,4′-piperidine]-2-yl)ethanone] | – | μ and σ1 dual binding: ++ |
| CN(Cc1ccccn1)C(=O)CN1CCC2(CC1)c1ccccc1CCN2C [Example 116, N-methyl-2-(2-methyl-3,4-dihydro-2H-spiro[isoquinoline-1,4′-piperidine]-1′-yl)-N-(pyridin-2-ylmethyl)acetamide] | – | μ and σ1 dual binding: ++ |
| CC(=O)N1CCc2ccccc2C12CCN(CC(C)C)CC2 [Example 12, 1-(1′-isobutyl-3,4-dihydro-2H-spiro[isoquinoline-1,4′-piperidine]-2-yl)ethanone] | – | μ and σ1 dual binding: ++ |
| OCCN1CCc2ccccc2C12CCN(CCc1ccccc1)CC2 [Example 123, 2-(1′-Phenethyl-3,4-dihydro-2H-spiro[isoquinoline-1,4′-piperidin]-2-yl)ethanol] | < 100 | – |
| CCN1CCc2ccccc2C12CCN(CC(=O)N1CCS(=O)(=O)CC1)CC2 [Example 149, 2-(2-ethyl-3,4-dihydro-2H-spiro[isoquinoline-1,4′-piperidine]-1′-yl)-1-(1,1-dioxo-thiomorpholin-4-yl)ethanone] | – | μ and σ1 dual binding: ++ |
| CC(=O)N1CCc2ccccc2C12CCN(CCOC(C)C)CC2 [Example 11, 1-(1′-(2-isopropoxyethyl)-3,4-dihydro-2H-spiro[isoquinoline-1,4′-piperidine]-2-yl)ethanone] | < 500 | – |
| CC(=O)N1CCc2ccccc2C12CCN(CC(=O)N1CCOCC1)CC2 [Example 34, 2-(2-acetyl-3,4-dihydro-2H-spiro[isoquinoline-1,4′-piperidine]-1′-yl)-1-morpholinoethanone] | – | Ki [1]: ≥ 500 nM |
| CCN(C(=O)CN1CCC2(CC1)c1ccccc1CCN2CC)C(C)C [Example 144, N-ethyl-2-(2-ethyl-3,4-dihydro-2H-spiro[isoquinoline-1,4′-piperidine]-1′-yl)-N-isopropylacetamide] | < 500 | – |
| CC(=O)N1CCc2ccccc2C12CCN(CCNC(=O)OC(C)(C)C)CC2 [Example 37, tert-butyl 2-(2-acetyl-3,4-dihydro-2H-spiro[isoquinoline-1,4′-piperidine]-1′-yl)ethylcarbamate] | – | Ki [1]: ≥ 500 nM |
| CN1CCc2ccccc2C12CCN(CCc1cccnc1)CC2 [Example 76, 2-methyl-1′-(2-(pyridin-3-yl)ethyl)-3,4-dihydro-2H-spiro[isoquinoline-1,4′-piperidine]] | < 500 | – |
| CN(Cc1ccccc1)C(=O)CN1CCC2(CC1)c1ccccc1CCN2C [Example 93, N-benzyl-N-methyl-2-(2-methyl-3,4-dihydro-2H-spiro[isoquinoline-1,4′-piperidine]-1′-yl)acetamide] | < 100 | – |
| CN1CCc2cc(O)ccc2C12CCN(CCc1ccccc1)CC2 [Example 131, 2-Methyl-1′-phenethyl-3,4-dihydro-2H-spiro[isoquinoline-1,4′-piperidin]-6-ol] | < 100 | – |

| SMILES | Ki [nM] | other results |
| --- | --- | --- |
| CN1CCc2ccccc2C12CCN(CCC1CCOCC1)CC2 [Example 74, 2-methyl-1′-(2-(tetrahydro-2H-pyran-4-yl)ethyl)-3,4-dihydro-2H-spiro[isoquinoline-1,4′-piperidine]] | < 500 | – |
| CN1CCc2ccccc2C12CCN(CCc1cccc(N)c1)CC2 [Example 117, 3-[2-(2-Methyl-3,4-dihydro-2H-spiro[isoquinoline-1,4′-piperidin]-1′-yl)-ethyl]-phenylamine] | < 100 | – |
| FC(F)(F)CN1CCc2ccccc2C12CCN(CCc1ccncc1)CC2 [Example 136, 1′-(2-(pyridin-4-yl)ethyl)-2-(2,2,2-trifluoroethyl)-3,4-dihydro-2H-spiro[isoquinoline-1,4′-piperidine]] | < 500 | – |
| CC1CCN(C(=O)CN2CCC3(CC2)c2ccccc2CCN3C)CC1 [Example 114, 2-(2-Methyl-3,4-dihydro-2H-spiro[isoquinoline-1,4′-piperidine]-1′-yl)-1-(4-methylpiperidin-1-yl)ethanone] | < 500 | – |
| CCN(CC)C(=O)CN1CCC2(CC1)c1ccccc1CCN2C [Example 56, N,N-diethyl-2-(2-methyl-3,4-dihydro-2H-spiro[isoquinoline-1,4′-piperidine]-1′-yl)acetamide] | < 500 | – |
| CC(=O)N1CCc2ccccc2C12CCN(CCOc1ccccn1)CC2 [Example 42, 1-(1′-(2-(Pyridin-2-yloxy)ethyl)-3,4-dihydro-2H-spiro[isoquinoline-1,4′-piperidine]-2-yl)ethanone] | – | μ and σ1 dual binding: ++ |
| CN1CCc2ccccc2C12CCN(Cc1cccnc1)CC2 [Example 84, 2-methyl-1′-(pyridin-3-ylmethyl)-3,4-dihydro-2H-spiro[isoquinoline-1,4′-piperidine]] | < 500 | – |
| CCCN(C(=O)CN1CCC2(CC1)c1ccccc1CCN2C)C(C)C [Example 107, N-isopropyl-2-(2-methyl-3,4-dihydro-2H-spiro[isoquinoline-1,4′-piperidine]-1′-yl)-N-propylacetamide] | – | μ and σ1 dual binding: ++ |
| CC(C)CN(C(=O)CN1CCC2(CC1)c1ccccc1CCN2C)C(C)C [Example 110, N-isobutyl-N-isopropyl-2-(2-methyl-3,4-dihydro-2H-spiro[isoquinoline-1,4′-piperidine]-1′-yl)acetamide] | – | Ki [1]: ≥ 500 nM |
| CN1CCc2ccccc2C12CCN(CCN1CCOCC1=O)CC2 [Example 80, 4-(2-(2-methyl-3,4-dihydro-2H-spiro[isoquinoline-1,4′-piperidine]-1′-yl)ethyl)morpholin-3-one] | – | Ki [1]: ≥ 500 nM |
| CN1CCc2ccccc2C12CCN(CC(=O)N1CCC(F)CC1)CC2 [Example 58, 1-(4-fluoropiperidin-1-yl)-2-(2-methyl-3,4-dihydro-2H-spiro[isoquinoline-1,4′-piperidine]-1′-yl)ethanone] | < 500 | – |
| COCCN1CCC2(CC1)c1ccccc1CCN2C [Example 77, 1′-(2-methoxyethyl)-2-methyl-3,4-dihydro-2H-spiro[isoquinoline-1,4′-piperidine]] | – | μ and σ1 dual binding: ++ |
| CC(=O)N1CCc2ccccc2C12CCN(CC1CCCCC1)CC2 [Example 13, 1-(1′-(cyclohexylmethyl)-3,4-dihydro-2H-spiro[isoquinoline-1,4′-piperidine]-2-yl)ethanone] | < 500 | – |
| CN1CCc2ccccc2C12CCN(Cc1ccccn1)CC2 [Example 82, 2-methyl-1′-(pyridin-2-ylmethyl)-3,4-dihydro-2H-spiro[isoquinoline-1,4′-piperidine]] | < 500 | – |
| CC(=O)Nc1cccc(CCN2CCC3(CC2)c2ccccc2CCN3C)c1 [Example 119, N-{3-[2-(2-Methyl-3,4-dihydro-2H-spiro[isoquinoline-1,4′-piperidin]-1′-yl)-ethyl]-phenyl}-acetamide] | < 500 | – |
| CC(=O)N1CCc2ccccc2C12CCN(CCN1CCCCC1)CC2 [Example 14, 1-(1′-(2-(piperidin-1-yl)ethyl)-3,4-dihydro-2H-spiro[isoquinoline-1,4′-piperidine]-2-yl)ethanone] | – | Ki [1]: ≥ 500 nM |
| CCN(C(=O)CN1CCC2(CC1)c1ccccc1CCN2C)C1CC1 [Example 106, N-cyclopropyl-N-ethyl-2-(2-methyl-3,4-dihydro-2H-spiro[isoquinoline-1,4′-piperidine]-1′-yl)acetamide] | < 500 | – |
| CN1CCc2ccccc2C12CCN(CC(O)c1ccccc1)CC2 (stereo not drawn) [Example 120, 2-(2-Methyl-3,4-dihydro-2H-spiro[isoquinoline-1,4′-piperidin]-1′-yl)-1-phenyl-ethanol] | < 500 | – |
| CNCCN1CCC2(CC1)c1ccccc1CCN2C(C)=O [Example 47, 1-(1′-(2-(Methylamino)ethyl)-3,4-dihydro-2H-spiro[isoquinoline-1,4′-piperidine]-2-yl)ethanone] | – | Ki [1]: ≥ 500 nM |
